Experimental data taken from PubChem BioAssay AID1918947 (Molecular Pharmacology Branch, DTP, NCI, 2023).
Values joined by “and” are separate entries in the source; they are usually repeats but may differ in a detail not shown here. Equal entries are not always repeated.

System: A498 complex spheroid viability
Experiment: Anticancer human tumor A498 cell line growth inhibition;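 note: spheroids exposed to agents for seven days before readout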;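 for viability, T/C: 100% = DMSO vehicle-treated spheroids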
Conditions: compound 0.000316 µM; stronger effect = lower value
Outline: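 Drug combinations with the LSD1 inhibitor iadademstat tested on tumor cells co-cultured as spheroids with endothelial cells and mesenchymal stem cells. Concentrations descended in half-log increments from clinical Cmax or 10 microM.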

Q: How did the viability, T/C turn out when `CC(C)CC(NC(=O)C(Cc1ccccc1)NC(=O)c1cnccn1)B(O)O` (configuration not stated) was run?
A: 103%

Same assay, conditions: compound 0.001 µM; stronger effect = lower value

Q: `CC(C)CC(NC(=O)C(Cc1ccccc1)NC(=O)c1cnccn1)B(O)O` (configuration not stated) was tested. Which viability, T/C did it give?
A: 59.9% and 22.5%

Same assay, conditions: compound 0.00316 µM; stronger effect = lower value

Q: Which viability, T/C does the source give for `COc1cc(Nc2ncc3c(n2)-c2ccc(Cl)cc2C(c2c(F)cccc2OC)=NC3)ccc1C(=O)O` here?
A: 95.5% and 94.2%

Q: How did the viability, T/C turn out when `Nc1ncn(C2CC(O)C(CO)O2)c(=O)n1` (configuration not stated) was run?
A: 104% and 103%

Q: `CC(C)CC(NC(=O)C(Cc1ccccc1)NC(=O)c1cnccn1)B(O)O` (configuration not stated) was tested. Which viability, T/C did it give?
A: 3.38% and 2.52%

Same assay, conditions: compound 0.00949 µM; stronger effect = lower value

Q: `COc1cc(C2c3cc4c(cc3C(OC3OC5COC(C)OC5C(O)C3O)C3COC(=O)C23)OCO4)cc(OC)c1O` (configuration not stated) was tested. Which viability, T/C did it give?
A: 89.7% and 87%

Q: How did the viability, T/C turn out when `O=C(C=Cc1cccc(S(=O)(=O)Nc2ccccc2)c1)NO` was run?
A: 94% and 91%

Same assay, conditions: compound 0.01 µM; stronger effect = lower value

Q: `COc1cc(Nc2ncc3c(n2)-c2ccc(Cl)cc2C(c2c(F)cccc2OC)=NC3)ccc1C(=O)O` was tested. Which viability, T/C did it give?
A: 84.6% and 64.9%

Q: Which viability, T/C does the source give for `Nc1ncn(C2CC(O)C(CO)O2)c(=O)n1` (configuration not stated) here?
A: 103% and 107%

Q: For `CC(C)CC(NC(=O)C(Cc1ccccc1)NC(=O)c1cnccn1)B(O)O` (configuration not stated), which viability, T/C is on record?
A: 0.64% and 0.86%

Same assay, conditions: compound 0.03 µM; stronger effect = lower value

Q: Which viability, T/C does the source give for `COc1cc(C2c3cc4c(cc3C(OC3OC5COC(C)OC5C(O)C3O)C3COC(=O)C23)OCO4)cc(OC)c1O` (configuration not stated) here?
A: 92.9% and 75.5%

Q: With `O=C(C=Cc1cccc(S(=O)(=O)Nc2ccccc2)c1)NO` as the molecule, how does the viability, T/C read?
A: 82.5% and 80.6%

Same assay, conditions: compound 0.0316 µM; stronger effect = lower value

Q: For `COc1cc(Nc2ncc3c(n2)-c2ccc(Cl)cc2C(c2c(F)cccc2OC)=NC3)ccc1C(=O)O`, which viability, T/C is on record?
A: 76.9% and 71.9%

Q: Which viability, T/C does the source give for `Nc1ncn(C2CC(O)C(CO)O2)c(=O)n1` (configuration not stated) here?
A: 97.1% and 92.8%

Q: Which viability, T/C does the source give for `CC1(C)CCC(CN2CCN(c3ccc(C(=O)NS(=O)(=O)c4ccc(NCC5CCOCC5)c([N+](=O)[O-])c4)c(Oc4cnc5[nH]ccc5c4)c3)CC2)=C(c2ccc(Cl)cc2)C1` here?
A: 103% and 98.6%

Q: For `COc1ccc([C@@H](O)c2cc(-c3ncnc4cc(N5CCOCC5)ccc34)c(F)cc2Cl)nn1`, which viability, T/C is on record?
A: 84.8% and 74.3%

Q: How did the viability, T/C turn out when `CC(C)CC(NC(=O)C(Cc1ccccc1)NC(=O)c1cnccn1)B(O)O` (configuration not stated) was run?
A: 0.57% and 0.5%

Same assay, conditions: compound 0.0949 µM; stronger effect = lower value

Q: How did the viability, T/C turn out when `COc1cc(C2c3cc4c(cc3C(OC3OC5COC(C)OC5C(O)C3O)C3COC(=O)C23)OCO4)cc(OC)c1O` (configuration not stated) was run?
A: 82.8% and 70.3%

Q: For `O=C(C=Cc1cccc(S(=O)(=O)Nc2ccccc2)c1)NO`, which viability, T/C is on record?
A: 70.8% and 65.3%

Same assay, conditions: compound 0.1 µM; stronger effect = lower value

Q: How did the viability, T/C turn out when `COc1cc(Nc2ncc3c(n2)-c2ccc(Cl)cc2C(c2c(F)cccc2OC)=NC3)ccc1C(=O)O` was run?
A: 66.4% and 62.6%

Q: For `Nc1ncn(C2CC(O)C(CO)O2)c(=O)n1` (configuration not stated), which viability, T/C is on record?
A: 84.8% and 88.6%

Q: `CC1(C)CCC(CN2CCN(c3ccc(C(=O)NS(=O)(=O)c4ccc(NCC5CCOCC5)c([N+](=O)[O-])c4)c(Oc4cnc5[nH]ccc5c4)c3)CC2)=C(c2ccc(Cl)cc2)C1` was tested. Which viability, T/C did it give?
A: 107% and 105%

Q: With `COc1ccc([C@@H](O)c2cc(-c3ncnc4cc(N5CCOCC5)ccc34)c(F)cc2Cl)nn1` as the molecule, how does the viability, T/C read?
A: 62.5% and 53.8%

Q: With `CC(C)CC(NC(=O)C(Cc1ccccc1)NC(=O)c1cnccn1)B(O)O` (configuration not stated) as the molecule, how does the viability, T/C read?
A: 0.31% and 0.36%

Same assay, conditions: compound 0.3 µM; stronger effect = lower value

Q: For `COc1cc(C2c3cc4c(cc3C(OC3OC5COC(C)OC5C(O)C3O)C3COC(=O)C23)OCO4)cc(OC)c1O` (configuration not stated), which viability, T/C is on record?
A: 78.1% and 74.6%

Q: How did the viability, T/C turn out when `O=C(C=Cc1cccc(S(=O)(=O)Nc2ccccc2)c1)NO` was run?
A: 53.1% and 46.8%

Same assay, conditions: compound 0.316 µM; stronger effect = lower value

Q: For `COc1cc(Nc2ncc3c(n2)-c2ccc(Cl)cc2C(c2c(F)cccc2OC)=NC3)ccc1C(=O)O`, which viability, T/C is on record?
A: 60% and 54.1%

Q: How did the viability, T/C turn out when `Nc1ncn(C2CC(O)C(CO)O2)c(=O)n1` (configuration not stated) was run?
A: 68.6% and 82.9%

Q: With `CC1(C)CCC(CN2CCN(c3ccc(C(=O)NS(=O)(=O)c4ccc(NCC5CCOCC5)c([N+](=O)[O-])c4)c(Oc4cnc5[nH]ccc5c4)c3)CC2)=C(c2ccc(Cl)cc2)C1` as the molecule, how does the viability, T/C read?
A: 97.5% and 95.6%

Q: `COc1ccc([C@@H](O)c2cc(-c3ncnc4cc(N5CCOCC5)ccc34)c(F)cc2Cl)nn1` was tested. Which viability, T/C did it give?
A: 33.1% and 28.8%

Same assay, conditions: compound 0.949 µM; stronger effect = lower value

Q: For `COc1cc(C2c3cc4c(cc3C(OC3OC5COC(C)OC5C(O)C3O)C3COC(=O)C23)OCO4)cc(OC)c1O` (configuration not stated), which viability, T/C is on record?
A: 68.8% and 57%

Q: With `O=C(C=Cc1cccc(S(=O)(=O)Nc2ccccc2)c1)NO` as the molecule, how does the viability, T/C read?
A: 33.8% and 34.2%

Same assay, conditions: compound 1 µM; stronger effect = lower value

Q: `COc1cc(Nc2ncc3c(n2)-c2ccc(Cl)cc2C(c2c(F)cccc2OC)=NC3)ccc1C(=O)O` was tested. Which viability, T/C did it give?
A: 50.4% and 40.4%

Q: Which viability, T/C does the source give for `Nc1ncn(C2CC(O)C(CO)O2)c(=O)n1` (configuration not stated) here?
A: 52.9% and 73.7%

Q: `CC1(C)CCC(CN2CCN(c3ccc(C(=O)NS(=O)(=O)c4ccc(NCC5CCOCC5)c([N+](=O)[O-])c4)c(Oc4cnc5[nH]ccc5c4)c3)CC2)=C(c2ccc(Cl)cc2)C1` was tested. Which viability, T/C did it give?
A: 93% and 88.7%

Q: With `COc1ccc([C@@H](O)c2cc(-c3ncnc4cc(N5CCOCC5)ccc34)c(F)cc2Cl)nn1` as the molecule, how does the viability, T/C read?
A: 19.1% and 18.4%

Same assay, conditions: compound 3 µM; stronger effect = lower value

Q: With `COc1cc(C2c3cc4c(cc3C(OC3OC5COC(C)OC5C(O)C3O)C3COC(=O)C23)OCO4)cc(OC)c1O` (configuration not stated) as the molecule, how does the viability, T/C read?
A: 56.8% and 48.7%

Q: For `O=C(C=Cc1cccc(S(=O)(=O)Nc2ccccc2)c1)NO`, which viability, T/C is on record?
A: 12.4% and 8.72%

Same assay, conditions: compound 3.16 µM; stronger effect = lower value

Q: Which viability, T/C does the source give for `CC1(C)CCC(CN2CCN(c3ccc(C(=O)NS(=O)(=O)c4ccc(NCC5CCOCC5)c([N+](=O)[O-])c4)c(Oc4cnc5[nH]ccc5c4)c3)CC2)=C(c2ccc(Cl)cc2)C1` here?
A: 74.2% and 67.7%

Q: For `COc1ccc([C@@H](O)c2cc(-c3ncnc4cc(N5CCOCC5)ccc34)c(F)cc2Cl)nn1`, which viability, T/C is on record?
A: 10.7% and 9.71%

Same assay, conditions: compound 10 µM; stronger effect = lower value

Q: How did the viability, T/C turn out when `CC1(C)CCC(CN2CCN(c3ccc(C(=O)NS(=O)(=O)c4ccc(NCC5CCOCC5)c([N+](=O)[O-])c4)c(Oc4cnc5[nH]ccc5c4)c3)CC2)=C(c2ccc(Cl)cc2)C1` was run?
A: 6.84% and 8.34%

Q: For `COc1ccc([C@@H](O)c2cc(-c3ncnc4cc(N5CCOCC5)ccc34)c(F)cc2Cl)nn1`, which viability, T/C is on record?
A: 6.93% and 6.16%

Same assay, conditions: curve of compound

Q: With `COc1cc(Nc2ncc3c(n2)-c2ccc(Cl)cc2C(c2c(F)cccc2OC)=NC3)ccc1C(=O)O` as the molecule, how does the IC50 read?
A: > 1 µM and 0.381 µM

Q: Which IC50 does the source give for `Nc1ncn(C2CC(O)C(CO)O2)c(=O)n1` (configuration not stated) here?
A: > 1 µM

Q: How did the IC50 turn out when `CC1(C)CCC(CN2CCN(c3ccc(C(=O)NS(=O)(=O)c4ccc(NCC5CCOCC5)c([N+](=O)[O-])c4)c(Oc4cnc5[nH]ccc5c4)c3)CC2)=C(c2ccc(Cl)cc2)C1` was run?
A: 4.72 µM and 4.39 µM

Q: With `COc1ccc([C@@H](O)c2cc(-c3ncnc4cc(N5CCOCC5)ccc34)c(F)cc2Cl)nn1` as the molecule, how does the IC50 read?
A: 0.164 µM and 0.115 µM

Q: Which IC50 does the source give for `COc1cc(C2c3cc4c(cc3C(OC3OC5COC(C)OC5C(O)C3O)C3COC(=O)C23)OCO4)cc(OC)c1O` (configuration not stated) here?
A: > 3 µM and 2.64 µM
